Laboratory results from ChEMBL document CHEMBL5385904, “Design, synthesis and biological evaluation of seco-DSP/DCK derivatives reversing P-glycoprotein-mediated paclitaxel resistance in A2780/T cells” (Eur J Med Chem, 2023).
Activity calls are given as the source filed them. No cut-off for these calls is given here.

Assays:
[1] = biological target: T1, ATP-dependent translocase ABCB1 (Homo sapiens, UniProt P08183); test: Inhibition of P-gp-mediated rhodamine-123 efflux in human A2780/Taxol cells assessed as increase in fluorescence intensity at 10 uM by flow cytometric analysis; assay type: cell-based; conditions: 1 h, TDE = time-dependent effect, time < 60 min
T1 sequence (P08183 whole entry): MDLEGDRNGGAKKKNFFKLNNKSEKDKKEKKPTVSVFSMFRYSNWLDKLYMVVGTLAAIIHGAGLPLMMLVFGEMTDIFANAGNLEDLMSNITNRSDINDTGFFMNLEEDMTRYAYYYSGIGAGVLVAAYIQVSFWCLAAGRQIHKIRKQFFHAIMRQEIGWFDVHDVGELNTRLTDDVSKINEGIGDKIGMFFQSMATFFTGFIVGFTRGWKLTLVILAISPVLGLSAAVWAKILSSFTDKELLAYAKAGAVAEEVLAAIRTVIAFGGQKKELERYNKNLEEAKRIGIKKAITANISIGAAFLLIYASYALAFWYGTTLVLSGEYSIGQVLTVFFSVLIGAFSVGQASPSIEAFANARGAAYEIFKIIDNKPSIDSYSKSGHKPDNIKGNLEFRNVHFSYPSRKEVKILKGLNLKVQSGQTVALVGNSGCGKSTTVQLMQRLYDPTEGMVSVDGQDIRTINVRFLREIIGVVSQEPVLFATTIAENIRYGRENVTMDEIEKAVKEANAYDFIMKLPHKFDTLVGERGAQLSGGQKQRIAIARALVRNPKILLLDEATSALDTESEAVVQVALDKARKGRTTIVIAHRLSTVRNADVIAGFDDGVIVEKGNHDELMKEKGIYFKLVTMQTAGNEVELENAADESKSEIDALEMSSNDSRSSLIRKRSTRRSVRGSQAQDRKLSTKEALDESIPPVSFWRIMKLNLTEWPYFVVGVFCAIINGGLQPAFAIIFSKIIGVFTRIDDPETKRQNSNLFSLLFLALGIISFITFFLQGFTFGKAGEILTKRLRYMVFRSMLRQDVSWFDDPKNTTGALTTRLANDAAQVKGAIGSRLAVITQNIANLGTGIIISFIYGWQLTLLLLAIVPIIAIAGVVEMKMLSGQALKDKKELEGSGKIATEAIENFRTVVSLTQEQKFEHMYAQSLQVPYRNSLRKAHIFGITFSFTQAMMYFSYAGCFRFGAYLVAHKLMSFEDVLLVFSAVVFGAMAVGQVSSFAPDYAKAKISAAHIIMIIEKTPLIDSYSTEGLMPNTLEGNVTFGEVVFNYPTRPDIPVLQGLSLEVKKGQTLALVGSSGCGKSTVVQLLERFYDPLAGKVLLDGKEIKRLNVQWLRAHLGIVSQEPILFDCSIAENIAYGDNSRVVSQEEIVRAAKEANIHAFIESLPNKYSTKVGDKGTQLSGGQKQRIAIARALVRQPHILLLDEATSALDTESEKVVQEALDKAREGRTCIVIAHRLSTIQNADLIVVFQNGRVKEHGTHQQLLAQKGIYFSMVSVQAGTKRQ

[2] = system: A2780/Taxol; test: Reversal of multi-drug resistance in human A2780/Taxol cells incubated for 48 hrs by MTT assay; assay type: functional, cell-based
[3] = system: A2780/Taxol; test: Reversal of multidrug resistance in human A2780/Taxol Cells assessed as reversal fold of paclitaxel IC50 at 10 uM incubated for 48 hrs by MTT assay; assay type: functional
[4] = biological target: hERG (KCNH2) (Homo sapiens, UniProt Q12809); test: Inhibition of hERG at 40 uM by patch clamp assay relative to control; assay type: toxicity
Chain of hERG (KCNH2) (Q12809 whole entry): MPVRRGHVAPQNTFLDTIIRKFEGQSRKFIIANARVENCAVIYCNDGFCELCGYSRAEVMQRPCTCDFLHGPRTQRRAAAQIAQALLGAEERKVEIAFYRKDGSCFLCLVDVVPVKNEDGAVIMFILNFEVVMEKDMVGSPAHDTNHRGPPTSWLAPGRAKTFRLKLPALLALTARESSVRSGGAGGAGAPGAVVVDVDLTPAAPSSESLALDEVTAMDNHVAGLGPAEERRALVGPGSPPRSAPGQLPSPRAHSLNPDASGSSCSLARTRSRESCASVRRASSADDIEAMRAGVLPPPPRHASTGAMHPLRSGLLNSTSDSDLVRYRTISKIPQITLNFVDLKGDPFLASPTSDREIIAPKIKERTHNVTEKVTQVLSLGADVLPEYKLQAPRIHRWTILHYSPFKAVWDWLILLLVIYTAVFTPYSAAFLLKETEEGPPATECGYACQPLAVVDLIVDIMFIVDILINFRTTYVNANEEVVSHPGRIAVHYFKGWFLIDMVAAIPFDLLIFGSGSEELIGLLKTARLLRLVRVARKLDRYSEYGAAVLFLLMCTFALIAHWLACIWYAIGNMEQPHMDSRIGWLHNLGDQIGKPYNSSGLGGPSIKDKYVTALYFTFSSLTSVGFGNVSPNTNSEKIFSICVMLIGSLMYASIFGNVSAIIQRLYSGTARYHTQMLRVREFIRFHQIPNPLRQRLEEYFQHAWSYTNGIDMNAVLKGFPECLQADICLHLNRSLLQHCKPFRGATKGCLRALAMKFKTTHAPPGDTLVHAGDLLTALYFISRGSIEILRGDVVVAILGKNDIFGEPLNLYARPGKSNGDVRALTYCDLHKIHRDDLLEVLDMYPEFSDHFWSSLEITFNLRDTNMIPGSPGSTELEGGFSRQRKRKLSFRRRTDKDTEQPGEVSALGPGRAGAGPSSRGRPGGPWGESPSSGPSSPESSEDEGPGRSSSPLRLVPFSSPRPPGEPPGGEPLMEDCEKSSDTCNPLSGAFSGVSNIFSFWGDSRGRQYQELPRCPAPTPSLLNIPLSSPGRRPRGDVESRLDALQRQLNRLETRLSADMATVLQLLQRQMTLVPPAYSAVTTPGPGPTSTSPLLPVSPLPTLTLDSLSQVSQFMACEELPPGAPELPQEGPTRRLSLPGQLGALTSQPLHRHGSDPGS

[5] = biological target: T1, ATP-dependent translocase ABCB1; test: Inhibition of P-gp-mediated rhodamine-123 efflux in human A2780/Taxol cells assessed as increase in fluorescence intensity at 10 uM measured upto 60 mins by flow cytometric analysis; assay type: cell-based; conditions: 1 h
[6] = Stability in water assessed as parent compound remaining measured immediately by LC-MS/MS analysis; assay type: physicochemical; conditions: read-out: Stability
[7] = system: A2780; test: Cytotoxicity against human A2780 cells assessed as reduction in cell viability at 10 to 20 uM incubated for 48 hrs by MTT assay; assay type: functional, cell-based; conditions: dose 10-20 µM
[8] = system: A2780; test: Reversal of drug-sensitive human A2780 cells at 2.5 to 20 uM incubated for 48 hrs in presence of paclitaxel by MTT assay; assay type: functional, cell-based; conditions: dose 2.5-20 µM
[9] = Stability in water assessed as parent compound remaining measured at 30 mins by LC-MS/MS analysis; assay type: physicochemical; conditions: read-out: Stability
[10] = Stability in human microsomal fraction preincubated for 10 mins followed by NADPH addition and measured upto 60 mins by LC-MS/MS analysis; assay type: ADME, microsomes, Microsome; conditions: time < 70 min, read-out: Stability
[11] = biological target: T1, ATP-dependent translocase ABCB1; test: Inhibition of P-gp in human A2780/Taxol cells assessed as paclitaxel accumulation in cells by measuring increase in fluorescence intensity incubated for 8 hrs; assay type: cell-based; conditions: at 2.5 to 20 µM, dose 2.5-20 µM
[12] = Stability in mouse plasma assessed as parent compound remaining measured at 30 mins by LC-MS/MS analysis; assay type: ADME, cell-free; conditions: read-out: Stability
[13] = system: A2780/Taxol; test: Cytotoxicity against human A2780/Taxol cells assessed survival rate at 10 uM incubated for 48 hrs by MTT assay; assay type: functional
[14] = biological target: T1, ATP-dependent translocase ABCB1; test: Inhibition of P-gp in human A2780/Taxol cells assessed as paclitaxel accumulation in cells by measuring increase in fluorescence intensity at 2.5 to 20 uM incubated for 8 hrs; assay type: cell-based; conditions: dose 2.5-20 µM
[15] = Stability in mouse plasma assessed as parent compound remaining measured immediately by LC-MS/MS analysis; assay type: ADME, cell-free; conditions: read-out: Stability
[16] = biological target: Voltage-gated inwardly rectifying potassium channel KCNH2 (Homo sapiens, UniProt Q12809); test: Inhibition of hERG by patch clamp assay; assay type: toxicity
Chain of Voltage-gated inwardly rectifying potassium channel KCNH2 (Q12809 whole entry): as above

[17] = system: A2780/Taxol; test: Reversal of multi-drug resistance in human A2780/Taxol cells at 5 to 20 uM incubated for 48 hrs by MTT assay; assay type: functional, cell-based; conditions: dose 5-20 µM
[18] = biological target: T1, ATP-dependent translocase ABCB1; test: Inhibition of P-gp in human A2780/Taxol cells assessed as paclitaxel accumulation in cells by measuring increase in fluorescence intensity at 2.5 to 10 uM incubated for 8 hrs; assay type: cell-based; conditions: dose 2.5-10 µM
[19] = system: A2780/Taxol; test: Effect on p-gp expression in human A2780/Taxol cells at 5 to 20 uM by Western blot analysis; assay type: functional, cell-based; conditions: dose 5-20 µM
[20] = biological target: T1, ATP-dependent translocase ABCB1; test: Inhibition of P-gp in human A2780/Taxol cells assessed as paclitaxel accumulation in cells by measuring increase in fluorescence intensity at 5 to 20 uM incubated for 8 hrs; assay type: cell-based; conditions: dose 5-20 µM

inhibition (INH) [1]: Tde
IC50 [2]: 10 nM
inhibition (INH) [5]: Active
remaining at 0 min [6]: 100%
remaining at 0.5 h [9]: 89.1%
remaining at 1 h [10]: 0.877%
inhibition (INH) [11]: Dose-Dependent Effect
remaining at 0.5 h [12]: 0.72%
inhibition (INH) [14]: Active
remaining at 0 min [15]: 100%
inhibition (INH) [18]: Active
inhibition (INH) [20]: Active
Structure (SMILES): COc1cc(CC(=O)OCc2c(OC(C)C)ccc3c(C)c(Cc4ccccc4)c(=O)oc23)cc(OC)c1OC
Activity ([2]; dose 2.5-20 µM): Dose-Dependent Effect
fold change (FC) [3]: 425
inhibition at 40 µM [4]: 19%
Activity [7]: Active
Activity [8]: Active
Cell survival rate [13]: 81%
IC50 [16]: > 40000 nM
Activity [17]: Active
Activity [19]: Active
